“And” between values parts separate entries of the source, which are not always exact repeats. Equal entries are not always repeated. Where two headings read alike, the source gives them in different places.
Tests used:
[1] = test system: native GnRH peptide; assay type: in vivo, Copenhagen rats; settings: for anti-GnRH antibodies titers: 750 μg total peptide, fortnightly s.c.
[2] = test system: testicles; test: Testicles weight evaluation at slaughter (100 days), treatment effect; assay type: in vivo, Copenhagen rats; settings: mean testicles weight vs placebo at slaughter (100 days); healthy adult rats, 750 μg total peptide
[3] = test system: prostate; test: Prostate weight evaluation at slaughter (100 days), treatment effect; assay type: in vivo, Copenhagen rats; settings: mean prostate weight vs placebo at slaughter (100 days); healthy adult rats, 750 μg total peptide
[4] = test system: testosterone; test: Testosterone levels determination / testosterone ablation after immunization; assay type: in vivo; settings: oily adjuvant (Montanide type); 2 immunizations in prepuberous animals, 3 or 4 immunizations in adult animals

Sequence	anti-GnRH antibodies titers ([1]; after 75 days of the beginning of experiment)	anti-GnRH antibodies titers ([1]; after 100 days / at the end of the experiment)	Effect on Testicles (Etreatment=1−(Ptreatment/Pplacebo)) [2]	Effect on Prostate (Etreatment=1−(Ptreatment/Pplacebo)) [3]	seroconversion (anti-GnRH) ([1]; after the fourth immunization, oily adjuvant (Montanide type)) [%]	seroconversion (anti-GnRH) ([1]; after the third immunization, s.c., Montanide adjuvant) [%]	anti-GnRH response relative to TT-GnRHm1 variant ([1]; doses equal to the TT-GnRHm1 variant) [times weaker]	highest anti-GnRH antibodies titers reached ([1]; over the whole experiment (5 immunizations, 100 days))	testosterone ablation [4]	seroconversion (anti-GnRH) ([1]; after the first immunization, s.c., Montanide adjuvant)
QYIKANSKFIGITELGGQ HWSYPLRPG (QYIKANSKFIGITELGGQHWSYPLRPG; GnRHm1 bonded at its amino-terminal end to epitope 830-844 of the tetanus toxoid) [TT-GnRHm1]	1/6000	1/12000	0.55	0.42	–	–	–	–	–	–
QHWSYPLRPGGGQYIKANSKFIGITEL (Chemical synthesis of the peptide.GnRHm1Tox.) [GnRHm1-TT]	–	–	0.43	0.41	90	90	10	1/1000	potent effect	–
IPGVAYTSPEVAWVGGGGQHWSYPLRP (GnRHm1 bonded at its amino-terminal end to the peptide P48 of the protein P64K of Neisseria meningitidis) [P48-P64K-GnRHm1]	–	–	0.49	0.28	–	–	–	–	–	100% and 90%
